Test [1] relates to MDA-MB-231 cell line. Briefly: MDA-MB-231 cancer cell proliferation inhibition (Cell Titer-Glo). It counts as cell-based. Particulars: Homo sapiens, MDA-MB-231 triple-negative breast cancer cell line, 72 hours. The method, boiled down:
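GI50 comes from CellTiter-Glo luminescence, read 10 min after reagent addition at RT, following 72 h compound treatment. Eleven concentrations were used (⅓ steps, highest 10 μM final) on 2000 cells/well. MDA-MB-231 and MDA-MB-468 were grown in DMEM, SHP-77 in RPMI.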

Test [2] concerns the target T1, TTK (Homo sapiens, UniProt P33981).
T1 sequence (P33981 1-857): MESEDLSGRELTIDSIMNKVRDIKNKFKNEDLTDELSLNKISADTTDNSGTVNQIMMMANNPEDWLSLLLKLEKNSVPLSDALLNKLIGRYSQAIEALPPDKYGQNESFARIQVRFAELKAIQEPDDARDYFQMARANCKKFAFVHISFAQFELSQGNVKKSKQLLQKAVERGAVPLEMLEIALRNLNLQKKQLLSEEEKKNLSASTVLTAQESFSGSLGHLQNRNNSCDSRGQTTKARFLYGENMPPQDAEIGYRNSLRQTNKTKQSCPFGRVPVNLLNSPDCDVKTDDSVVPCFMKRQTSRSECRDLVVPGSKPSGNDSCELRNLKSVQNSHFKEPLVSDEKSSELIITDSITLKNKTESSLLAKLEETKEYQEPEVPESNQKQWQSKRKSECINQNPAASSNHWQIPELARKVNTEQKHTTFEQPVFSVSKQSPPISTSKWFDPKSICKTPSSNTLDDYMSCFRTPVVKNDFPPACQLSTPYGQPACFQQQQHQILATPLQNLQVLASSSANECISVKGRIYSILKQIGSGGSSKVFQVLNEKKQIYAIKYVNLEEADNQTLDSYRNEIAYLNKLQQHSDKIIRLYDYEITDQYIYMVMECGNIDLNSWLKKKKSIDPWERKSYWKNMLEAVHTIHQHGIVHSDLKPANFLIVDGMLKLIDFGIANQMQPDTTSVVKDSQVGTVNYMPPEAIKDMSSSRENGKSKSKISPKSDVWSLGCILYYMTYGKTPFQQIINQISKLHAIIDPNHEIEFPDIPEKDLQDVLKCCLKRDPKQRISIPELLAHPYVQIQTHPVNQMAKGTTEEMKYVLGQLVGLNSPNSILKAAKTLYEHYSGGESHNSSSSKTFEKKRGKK
Briefly: TTK enzyme inhibition, ADP-Glo kinase assay. Further details: purchased Signalchem T20-10G. Particulars: ATP 5 μM. It counts as biochemical. The protocol:
In order to evaluate the inhibitory activity of the compounds according to the present invention on LRRK2, LRRK2 (G2019S), DYRK1, CLK1 and TTK kinases, the following experiment was performed.
Example compounds were reacted with the purified human TTK (Signalchem #T20-10G) enzyme to evaluate the enzyme inhibitory ability as follows. The reaction buffer was used as the composition of 40 mM Tris-HCl pH7.4, 20 mM MgCl2, 0.1 mg/ml BSA (5× kinase buffer, Signalchem #K03-09) and 50 μM DTT (Signalchem #D86-09B), and the reaction of all test materials was performed on the reaction buffer. The compound was diluted with 10 mM DMSO stock in […] by a serial dilution method, and the enzyme activity was measured at the final compound concentrations of 1, 0.333333, 0.111111, 0.037037, 0.012346, 0.004115, 0.001372, 0.000457, 0.000152, 0.000051 and 0.000017 μM. In the test, the human TTK (7.5 ng) enzyme was reacted with the purified ATP (5 μM, Promega #V6930) and an MBP enzyme substrate (0.2 μg, Signalchem M42-51N) at 25° C. for 4 hours, and then the enzyme activity was identified using the in vitro ADP-Glo™ kinase assay (Promega #V6930). The enzyme activity reaction liquid, an ADP-Glo reaction liquid and an enzyme potency detection solution were reacted in a ratio of 2:2:1, and the degree of inhibition of enzyme activity was measured by luminescence. The degree of inhibition of enzyme activity according to the treatment concentrations of the respective compounds was calculated based on the luminescence degree of the enzyme activity of a solvent control group that was not treated with the compound, where the concentration of each compound to inhibit enzyme activity inhibition by 50% was determined as an IC50 (nM) value and obtained using Prism (Version 8.2, GraphPad) software.
In the table below, the following designations were used for the evaluation of enzyme inhibitory ability.

Test [3] addresses LRRK2 (G2019S) (Homo sapiens, UniProt Q5S007, G2019S). Briefly: LRRK2 G2019S enzyme inhibition, ADP-Glo kinase assay. In kind it is biochemical. Further details: purchased SignalChem L10-12GG. The method, boiled down:
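Purified human LRRK2 G2019S (16 ng) with 25 μM ATP and 0.2 μg substrate, 2 h at 25° C in 40 mM Tris-HCl pH 7.4, 20 mM MgCl2, 0.5 mg/ml BSA, 50 μM DTT; compound at 12 final concentrations from 50 μM downward. ADP-Glo luminescence versus solvent control gave IC50 (nM).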

LRRK2 (G2019S), sequence (Q5S007 970-2527 G2019S limits assumed): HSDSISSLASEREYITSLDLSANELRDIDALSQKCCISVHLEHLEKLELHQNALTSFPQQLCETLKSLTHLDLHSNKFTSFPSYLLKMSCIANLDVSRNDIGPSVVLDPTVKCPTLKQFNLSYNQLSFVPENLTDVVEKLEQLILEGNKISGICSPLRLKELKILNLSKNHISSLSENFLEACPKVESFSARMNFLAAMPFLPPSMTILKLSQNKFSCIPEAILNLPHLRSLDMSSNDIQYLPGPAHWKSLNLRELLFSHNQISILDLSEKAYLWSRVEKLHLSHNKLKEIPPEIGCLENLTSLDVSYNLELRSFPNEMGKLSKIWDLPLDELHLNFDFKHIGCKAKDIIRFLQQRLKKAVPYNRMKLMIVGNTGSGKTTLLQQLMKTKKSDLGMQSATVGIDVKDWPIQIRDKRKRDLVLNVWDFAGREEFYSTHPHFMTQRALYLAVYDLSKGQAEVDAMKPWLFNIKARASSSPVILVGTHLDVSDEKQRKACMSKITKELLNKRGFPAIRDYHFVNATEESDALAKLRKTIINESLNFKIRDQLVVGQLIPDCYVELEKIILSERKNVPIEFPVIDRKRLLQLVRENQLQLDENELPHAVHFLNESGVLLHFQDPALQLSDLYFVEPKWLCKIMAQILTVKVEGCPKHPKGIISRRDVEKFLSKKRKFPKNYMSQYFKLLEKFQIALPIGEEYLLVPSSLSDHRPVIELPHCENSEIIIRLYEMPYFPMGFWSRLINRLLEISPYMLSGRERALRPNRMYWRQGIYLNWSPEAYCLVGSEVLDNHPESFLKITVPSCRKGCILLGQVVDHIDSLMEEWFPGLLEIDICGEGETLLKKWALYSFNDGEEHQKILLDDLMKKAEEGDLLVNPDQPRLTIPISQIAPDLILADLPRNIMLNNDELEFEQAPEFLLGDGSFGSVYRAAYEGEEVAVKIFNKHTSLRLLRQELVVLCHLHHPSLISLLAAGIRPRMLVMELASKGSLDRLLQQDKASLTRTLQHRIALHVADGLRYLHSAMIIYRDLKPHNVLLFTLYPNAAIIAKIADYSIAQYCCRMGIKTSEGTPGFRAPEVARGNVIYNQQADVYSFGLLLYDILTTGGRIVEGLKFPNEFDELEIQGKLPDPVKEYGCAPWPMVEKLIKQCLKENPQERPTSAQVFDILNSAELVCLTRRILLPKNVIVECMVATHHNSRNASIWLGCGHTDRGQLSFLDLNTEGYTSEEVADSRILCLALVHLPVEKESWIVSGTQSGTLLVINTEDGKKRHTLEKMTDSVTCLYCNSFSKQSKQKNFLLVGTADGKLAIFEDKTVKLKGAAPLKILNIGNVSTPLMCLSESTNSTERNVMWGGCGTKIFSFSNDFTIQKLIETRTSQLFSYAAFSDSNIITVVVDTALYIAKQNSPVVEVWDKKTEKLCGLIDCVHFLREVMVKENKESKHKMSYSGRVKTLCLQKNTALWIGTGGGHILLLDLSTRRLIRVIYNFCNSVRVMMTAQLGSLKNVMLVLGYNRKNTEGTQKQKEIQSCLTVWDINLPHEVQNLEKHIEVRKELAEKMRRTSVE

In the case of `O=C(c1ccc(Nc2cc(NC3CC3)c3c(C(F)(F)F)c[nH]c3n2)c2c1CCO2)N1CCC(N2CCOCC2)CC1` [Example 92, (7-((4-(cyclopropylamino)-3-(trifluoromethyl)-1H-pyrrolo[2,3-b]pyridin-6-yl)amino)-2,3-dihydrobenzofuran-4-yl)(4-morpholinopiperidin-1-yl)methanone], the GI50 in test [1] fell in the range of 301 to 1000 nM. In addition, the 50% inhibitory concentration (IC50) in test [2] and in test [3] was < 100 nM in each case.

As to `CCNc1cc(Nc2ccc(C(=O)N3CCC(N4CCOCC4)CC3)c3c2OCO3)nc2[nH]cc(C(F)(F)F)c12` [Example 37, (7-((4-(ethylamino)-3-(trifluoromethyl)-1H-pyrrolo[2,3-b]pyridin-6-yl)amino)benzo[d][1,3]dioxol-4-yl)(4-morpholinopiperidin-1-yl)methanone], the GI50 in test [1] was in the range of 301 to 1000 nM. Also, the IC50 in test [3] was < 100 nM.

`CCCNc1cc(Nc2ccc(C(=O)N3CCC(N4CCOCC4)CC3)c3c2OCCO3)nc2[nH]cc(C(F)(F)F)c12` [Example 162, (4-morpholinopiperidin-1-yl)(8-((4-(propylamino)-3-(trifluoromethyl)-1H-pyrrolo[2,3-b]pyridin-6-yl)amino)-2,3-dihydrobenzo[b] [1,4]dioxin-5-yl)methanone]: in test [3], the IC50 was < 100 nM.

For `CCNc1cc(Nc2ccc(C(=O)N3C[C@@H]4C[C@H]3CO4)c3c2OCCO3)nc2[nH]cc(C(F)(F)F)c12` [Example 44, ((1S,4S)-2-oxa-5-azabicyclo[2.2.1]heptan-5-yl)(8-((4-(ethylamino)-3-(trifluoromethyl)-1H-pyrrolo[2,3-b]pyridin-6-yl)amino)-2,3-dihydrobenzo[b] [1,4]dioxin-5-yl)methanone], the GI50 in test [1] was in the range of 301 to 1000 nM. In test [2], the IC50 was < 100 nM.

`CNc1cc(Nc2ccc(S(=O)(=O)N3CCC(N4C[C@H]5C[C@@H]4CO5)CC3)cc2OC)nc2[nH]cc(C(F)(F)F)c12` [Example 243, N^6-(4-((4-((1R,4R)-2-oxa-5-azabicyclo[2.2.1]heptan-5-yl)piperidin-1-yl)sulfonyl)-2-methoxyphenyl)-N^4-methyl-3-(trifluoromethyl)-1H-pyrrolo[2,3-b]pyridine-4,6-diamine]: the 50% growth inhibitory concentration (GI50) in test [1] was in the range of 101 to 300 nM. Moreover, the IC50 in test [3] is < 100 nM.

In the case of `CCNc1cc(Nc2ccc(P3(=O)CCN(C4CCOCC4)CC3)cc2OC)nc2[nH]cc(C(F)(F)F)c12` [Example 94, 4-(4-((4-(ethylamino)-3-(trifluoromethyl)-1H-pyrrolo[2,3-b]pyridin-6-yl)amino)-3-methoxyphenyl)-1-(tetrahydro-2H-pyran-4-yl)-1,4-azaphosphinane 4-oxide], the GI50 in test [1] lay in the range of 301 to 1000 nM. This compound also displayed an IC50 in test [3] of 101 to 300 nM.

Regarding `O=C(c1ccc(Nc2cc(C3CC3)c3c(C(F)(F)F)c[nH]c3n2)c2c1CCO2)N1CC[C@@H](N2CCOCC2)C1` [Example 238, (R)-(7-((4-cyclopropyl-3-(trifluoromethyl)-1H-pyrrolo[2,3-b]pyridin-6-yl)amino)-2,3-dihydrobenzofuran-4-yl)(3-morpholinopyrrolidin-1-yl)methanone], in test [1], the GI50 was 301 to 1000 nM. Further, in test [2], the IC50 was < 100 nM.

In the case of `CCNc1cc(Nc2ccc(S(=O)(=O)N3CCC(N4CCOCC4)CC3)c3c2OCCO3)nc2[nH]cc(C(F)(F)F)c12` [Example 96, N^4-ethyl-N^6-(8-((4-morpholonopiperidin-1-yl)sulfonyl)-2,3-dihydrobenzo [b] [1,4]dioxin-5-yl)-3-(trifluoromethyl)-1H-pyrrolo[2,3-b]pyridine-4,6-diamine], the GI50 in test [1] was 301 to 1000 nM. For the same compound, the IC50 in test [3] was < 100 nM.

Take `CNc1cc(Nc2ccc(C(=O)N3CC[C@H](N4CCOCC4)C3)c3c2OCC3)nc2[nH]cc(C(F)(F)F)c12` [Example 217, (S)-(7-((4-(methylamino)-3-(trifluoromethyl)-1H-pyrrolo[2,3-b]pyridin-6-yl)amino)-2,3-dihydrobenzofuran-4-yl)(3-morpholinopyrrolidin-1-yl)methanone]: in test [1], the GI50 lay within 301 to 1000 nM. The IC50 in test [2] is < 100 nM.

`CCNc1cc(Nc2ccc(C(=O)N3CCN(C4COC4)CC3)c3c2OCCO3)nc2[nH]cc(C(F)(F)F)c12` [Example 173, (8-((4-(ethylamino)-3-(trifluoromethyl)-1H-pyrrolo[2,3-b]pyridin-6-yl)amino)-2,3-dihydrobenzo[b] [1,4]dioxin-5-yl)(4-(oxetan-3-yl)piperazin-1-yl)methanone]: in test [1], the GI50 lay within 301 to 1000 nM. Besides, the IC50 in test [2] was < 100 nM.

In the case of `CNc1cc(Nc2ccc(C(=O)N3CCC(N4CCOCC4)CC3)c3c2OCCO3)nc2[nH]cc(C(F)(F)F)c12` [Example 160, (8-((4-(methylamino)-3-(trifluoromethyl)-1H-pyrrolo[2,3-b]pyridin-6-yl)amino)-2,3-dihydrobenzo [b] [1,4]dioxin-5-yl)(4-morpholinopiperidin-1-yl)methanone], the IC50 in test [3] was < 100 nM.

With `COCCNc1cc(Nc2ccc(P3(=O)CCN(C4CC4)CC3)cc2OC)nc2[nH]cc(C#N)c12` [Example 148, 6-((4-(1-cyclopropyl-4-oxido-1,4-azaphosphinan-4-yl)-2-methoxyphenyl)amino)-4-((2-methoxyethyl)amino)-1H-pyrrolo[2,3-b]pyridine-3-carbonitrile], in test [1], the GI50 fell in the range of 301 to 1000 nM. Further, the IC50 in test [2] is < 100 nM.

In test [1], `COc1cc(S(=O)(=O)N2CCC(N3CCOCC3)CC2)ccc1Nc1cc(NCCS(C)(=O)=O)c2c(C(F)(F)F)c[nH]c2n1` [Example 194, N^6-(2-methoxy-4-((4-morpholinopiperidin-1-yl)sulfonyl)phenyl)-N^4-(2-(methylsulfonyl)ethyl)-3-(trifluoromethyl)-1H-pyrrolo[2,3-b]pyridine-4,6-diamine] had a GI50 of 301 to 1000 nM. Besides, the IC50 in test [3] was < 100 nM.

As to `O=C(c1ccc(Nc2cc(C3CC3)c3c(C(F)(F)F)c[nH]c3n2)c2c1OCO2)N1CCC(N2CCOCC2)CC1` [Example 49, (7-((4-cyclopropyl-3-(trifluoromethyl)-1H-pyrrolo[2,3-b]pyridin-6-yl)amino)benzo[d][1,3]dioxol-4-yl)(4-morpholinopiperidin-1-yl)methanone], in test [1], the GI50 fell in the range of 301 to 1000 nM. For the same compound, in test [2], the IC50 is < 100 nM.

For `O=C(c1ccc(Nc2cc(C3CC3)c3c(C(F)(F)F)c[nH]c3n2)c2c1CCO2)N1CC[C@H](N2CCOCC2)C1` [Example 237, (S)-(7-((4-cyclopropyl-3-(trifluoromethyl)-1H-pyrrolo[2,3-b]pyridin-6-yl)amino)-2,3-dihydrobenzofuran-4-yl)(3-morpholinopyrrolidin-1-yl)methanone], in test [1], the GI50 was in the range of 301 to 1000 nM. In test [2], the IC50 is 101 to 300 nM.

As for `CNc1cc(Nc2ccc(P3(=O)CCN(C4CC4)CC3)cc2OC)nc2[nH]cc(C#N)c12` [Example 146, 6-((4-(1-cyclopropyl-4-oxido-1,4-azaphosphinan-4-yl)-2-methoxyphenyl)amino)-4-(methylamino)-1H-pyrrolo[2,3-b]pyridine-3-carbonitrile], the GI50 in test [1] was in the range of 301 to 1000 nM. Moreover, the IC50 in test [2] is < 100 nM.

These data come from patent US12240844B2 (Voronoi, Inc., priority 2019, dated 2025).
